Assays:
Type in all cases: in vivo
Spodoptera litura [1] = experiment: Pesticidal test against Spodoptera litura (cabbage leaf immersion); details: 144 h, 2-stage larvae on treated cabbage leaf, 25° C., after 6 days, read-out: pesticidal rate
Experimental: (§1) Pesticidal Test Against Spodoptera litura A piece of a cabbage leaf was immersed for 30 seconds in a chemical solution in which a test compound had been diluted at a predetermined concentration, and air-dried, and then put into a 7 cm polyethylene cup having a filter paper laid on the bottom thereof, and 2-stage larvae of Spodoptera litura were released. They were left to stand in a thermostatic chamber at 25° C., and the numbers of the living pests and the dead pests were examined after 6 days. The test was carried out with five larvae per group in two replicates.

Plutella xylostella = experiment: Pesticidal test against Plutella xylostella (cabbage leaf immersion); details: 144 h, 3-stage larvae on treated cabbage leaf, 25° C., after 6 days, read-out: pesticidal rate
Experimental: as §1, with “Plutella xylostella” for “Spodoptera litura”, “3-stage” for “2-stage”

Spodoptera litura [2] = experiment: Pesticidal test of penetration migration against Spodoptera litura (radish seedling root immersion); details: 72 h, radish seedling root immersed 2 days, leaf fed to 2-stage larvae, 25° C., after 3 days, read-out: pesticidal rate
Experimental: Pesticidal Test of Penetration Migration against Spodoptera litura A root portion of a radish seedling was immersed for 2 days in a chemical solution in which a test compound had been diluted at a predetermined concentration, then the leaf was cut and put into a 7 cm polyethylene cup having a filter paper laid on the bottom thereof, and 2-stage larvae of Spodoptera litura were released. They were left to stand in a thermostatic chamber at 25° C., and the numbers of the living pests and the dead pests were examined after 3 days. The test was carried out with five larvae per group in two replicates.

Musca domestica = experiment: Pesticidal test against Musca domestica (petri dish residue); details: 24 h, acetone solution dried in petri dish, female adults, 25° C., after 1 day, read-out: pesticidal rate
Experimental: Pesticidal Test Against Musca domestica
1 ml of an acetone solution in which a test compound had been diluted at a predetermined concentration was added dropwise to a petri dish having a diameter of 9 cm, and air-dried, and then the female adults of Musca domestica were released and the petri dish was capped. They were left to stand in a thermostatic chamber at 25° C., and the numbers of the living pests and the dead pests were examined after 1 day. The test was carried out with […] in two replicates.

N#Cc1ccc(C(=O)N(CCC(N)=O)c2cccc(C(=O)Nc3c(Br)cc(C(F)(C(F)(F)F)C(F)(F)F)cc3C(F)(F)F)c2F)cc1 [1-136, 3-(N-(3-amino-3-oxopropyl)-4-cyanobenzamide)-N-(2-bromo-4-(perfluoropropan-2-yl)-6-(trifluoromethyl)phenyl)-2-fluorobenzamide]
≥ 70%: pest or weed control at 100 ppm (Spodoptera litura [1]) | pest or weed control at 100 ppm (Plutella xylostella) | pest or weed control at 1 ppm (Spodoptera litura [2]) | pest or weed control at 1000 ppm (Musca domestica)

N#Cc1cccc(C(=O)N(CCC(=O)NO)c2cccc(C(=O)Nc3c(Br)cc(C(F)(C(F)(F)F)C(F)(F)F)cc3Br)c2F)c1 [5-33, 3-(3-cyano-N-(3-(hydroxyamino)-3-oxopropyl)benzamide)-N-(2,6-dibromo-4-(perfluoropropan-2-yl)phenyl)-2-fluorobenzamide]
≥ 70%: pest or weed control at 100 ppm (Spodoptera litura [1]) | pest or weed control at 100 ppm (Plutella xylostella) | pest or weed control at 1 ppm (Spodoptera litura [2])

CCOC(=O)NC(=O)CCN(C(=O)c1ccc(C#N)cc1)c1cccc(C(=O)Nc2c(Br)cc(C(F)(C(F)(F)F)C(F)(F)F)cc2C(F)(F)F)c1F [5-76, ethyl 3-(N-(3-(2-bromo-4-(perfluorophan-2-yl)-6-(trifluoromethyl)phenylcarbamoyl)-2-fluorophenyl)-4-cyanobenzamide)propanoylcarbamate]
≥ 70%: pest or weed control at 100 ppm (Spodoptera litura [1]) | pest or weed control at 100 ppm (Plutella xylostella) | pest or weed control at 1 ppm (Spodoptera litura [2]) | pest or weed control at 1000 ppm (Musca domestica)

CNC(=O)CCN(C(=O)c1ccccc1)c1cccc(C(=O)Nc2c(I)cc(C(F)(C(F)(F)F)C(F)(F)F)cc2C(F)(F)F)c1 [5-86, N-(3-(2-iodo-4-(perfluoropropan-2-yl)-6-(trifluoromethyl)phenylcarbamoyl)phenyl)-N-(3-(methylamino)-3-oxopropyl)benzamide]
≥ 70%: pest or weed control at 100 ppm (Spodoptera litura [1]) | pest or weed control at 100 ppm (Plutella xylostella) | pest or weed control at 1 ppm (Spodoptera litura [2]) | pest or weed control at 1000 ppm (Musca domestica)

— US9084420B2, “Amide derivative, pest control agent containing the amide derivative, and pest controlling method” (Mitsui Chemicals Agro, Inc., priority 2008, dated 2015)
